Results as given in ChEMBL document CHEMBL4043234, “Anticancer efficacy of p-dodecylaminophenol against high-risk and refractory neuroblastoma cells in vitro and in vivo” (Bioorg Med Chem Lett, 2017).
The source made the active and inactive calls. The rule behind the calls is not given here.

Tests used:
SK-N-AS [1] = assay: Growth inhibition of human SK-N-AS cells at 1 uM after 24 hrs by MTT assay relative to control; format: functional; conditions: read-out: GI
SK-N-AS [2] = assay: Growth inhibition of human SK-N-AS cells at 1 uM after 72 hrs by MTT assay relative to control; format: functional; conditions: read-out: GI
IMR-32 [3] = assay: Growth inhibition of human IMR32 cells at 0.1 uM after 24 hrs by MTT assay relative to control; format: functional; conditions: IMR-32, 24 h, read-out: GI
IMR-32 [4] = assay: Growth inhibition of human IMR32 cells at 0.1 uM after 72 hrs by MTT assay relative to control; format: functional; conditions: IMR-32, 72 h, read-out: GI
IMR-32 [5] = assay: Growth inhibition of human IMR32 cells at 0.4 uM after 72 hrs by MTT assay relative to control; format: functional; conditions: IMR-32, 72 h, read-out: GI
IMR-32 [6] = assay: Growth inhibition of human IMR32 cells at 0.01 uM after 72 hrs by MTT assay relative to control; format: functional; conditions: IMR-32, 72 h, read-out: GI
SK-N-AS [7] = assay: Cell cycle arrest in human SK-N-AS cells at 4 uM up to 72 hrs by propidium iodide staining based flow cytometry; format: functional
SK-N-AS [8] = assay: Cell cycle arrest in human SK-N-AS cells assessed as accumulation at sub-G1 phase at 4 uM after 24 hrs by propidium iodide staining based flow cytometry; format: functional
SK-N-AS [9] = assay: Induction of apoptosis in human SK-N-AS cells assessed as caspase-3 activity at 4 uM after 8 to 24 hrs by CPP32 based colorimetric assay; format: functional, cell-based
IMR-32 [10] = assay: Induction of apoptosis in human IMR32 cells assessed as decrease in Bcl-2 mRNA expression level at 4 uM after 24 hrs by real-time PCR method relative to control; format: functional; parameters: scale not given: the % may be the effect or the level left
IMR-32 [11] = assay: Induction of apoptosis in human IMR32 cells assessed as decrease in Bcl-2 mRNA expression level at 4 uM after 8 hrs by real-time PCR method; format: functional, cell-based
IMR-32 [12] = assay: Reduction in N-myc mRNA expression level in human IMR32 cells at 4 uM after 24 hrs by real-time PCR method relative to control; format: functional; parameters: scale not given: the % may be the effect or the level left
IMR-32 [13] = assay: Reduction in N-myc mRNA expression level in human IMR32 cells at 4 uM after 8 hrs by real-time PCR method; format: functional, cell-based
SK-N-AS [14] = assay: Growth inhibition of human SK-N-AS cells at 4 uM after 24 hrs by MTT assay relative to control; format: functional; conditions: read-out: GI
SK-N-AS [15] = assay: Growth inhibition of human SK-N-AS cells at 4 uM after 72 hrs by MTT assay relative to control; format: functional; conditions: read-out: GI

Row | SMILES | inhibition of growth at 1 µM (SK-N-AS [1]) [%] | inhibition of growth at 1 µM (SK-N-AS [2]) [%] | inhibition of growth at 0.1 µM (IMR-32 [3]) [%] | inhibition of growth at 0.1 µM (IMR-32 [4]) [%] | inhibition of growth at 0.4 µM (IMR-32 [5]) [%] | inhibition of growth at 0.01 µM (IMR-32 [6]) [%] | Activity (SK-N-AS [7]) | Activity (SK-N-AS [8]) | Activity (SK-N-AS [9]) | Activity (IMR-32 [10]) [%] | Activity (IMR-32 [11]) | Activity (IMR-32 [12]) [%] | Activity (IMR-32 [13]) | inhibition of growth at 4 µM (SK-N-AS [14]) [%] | inhibition of growth at 4 µM (SK-N-AS [15]) [%]
1 | CC1=C(/C=C/C(C)=C/C=C/C(C)=C/C(=O)O)C(C)(C)CCC1 [TRETINOIN] | 0 | 3 | 9 | 60 | 65 | 47 | Active | Active | inactive | 67 | inactive | 13 | inactive |  | 
2 | CCCCCCCCCC(=O)Nc1ccc(O)cc1 |  |  |  |  |  |  |  |  |  |  |  |  |  | 5 | 13
3 | CCCCCCCCCCCC(=O)Nc1ccc(O)cc1 |  |  |  |  |  |  |  |  |  |  |  |  |  | 22 | 24
